In patent US8597688B2, “Pesticidal mixtures comprising isoxazoline compounds II” (BASF SE, priority 2008, dated 2013):
Where two headings read alike, the source gives them in different places.

Experiments:
Type in all cases: cell-based
Pyricularia oryzae = settings: single active compound, Pyrior microtiter test
Phytophthora infestans = settings: day 7
Botrytis cinerea = assay: Activity against the grey mold Botrytis cinerea in the microtiterplate test (Botrci); settings: 7 days
Septoria tritici = assay: Activity against leaf blotch on wheat caused by Septoria tritici (Septtr), microtiter test; settings: day 7

Molecule Cc1cc(C2=NOC(c3cc(Cl)cc(Cl)c3)(C(F)(F)F)C2)ccc1C(=O)NCC(=O)NCC(F)(F)F (stereo not drawn) [C.I.240] has an Observed efficacy (Pyricularia oryzae; concentration 1 ppm) of 0, an Observed efficacy (Pyricularia oryzae; concentration 4 ppm) of 11 and an Observed efficacy (Phytophthora infestans; 4 ppm) of 6%. For the same molecule, the Observed efficacy (Phytophthora infestans; 16 ppm) was 15%, the Observed efficacy (Botrytis cinerea; 0.063 ppm) was 0% and the Observed efficacy (Botrytis cinerea; 16 ppm) was 18%. For the same molecule, the Observed efficacy (Septoria tritici; 4 ppm) was 0%.

O=C(CNC(=O)c1ccc(C2=NOC(c3cc(Cl)cc(Cl)c3)(C(F)(F)F)C2)c2ccccc12)NCC(F)(F)F (stereo not drawn) [C.I.402] gave an Observed efficacy (Pyricularia oryzae; concentration 1 ppm) of 6, an Observed efficacy (Pyricularia oryzae; concentration 4 ppm) of 35 and an Observed efficacy (Septoria tritici; 4 ppm) of 2%. For the same molecule, the Observed efficacy (Septoria tritici; 63 ppm) was 0%.

COC(=O)Nc1nc2ccccc2[nH]1 [Carbendazim] was tested, and the Observed efficacy (Pyricularia oryzae; concentration 0.25 ppm) was 18.

N#Cc1c(Cl)c(Cl)c(Cl)c(C#N)c1Cl [Chlorothalonil, 2,4,5,6-tetrachloroisophthalonitrile, reference compound] gave an Observed efficacy (Phytophthora infestans; 1 ppm) of 53% and an Observed efficacy (Botrytis cinerea; 1 ppm) of 43%.

Work on Fc1ccc([C@]2(Cn3cncn3)O[C@H]2c2ccccc2Cl)cc1 [Epoxiconazol] yielded an Observed efficacy (Pyricularia oryzae; concentration 0.063 ppm) of 0.

Molecule CC1(C(=O)Nc2ccc(O)c(Cl)c2Cl)CCCCC1 [Fenhexamid, N-(2,3-dichloro-4-hydroxyphenyl)-1-methylcyclohexanecarboxamide, reference compound] has an Observed efficacy (Botrytis cinerea; 0.016 ppm) of 51%.

CO/N=C(/C1=NOCCO1)c1ccccc1Oc1ncnc(Oc2ccccc2Cl)c1F [Fluoxastrobin, (E)-{2-[6-(2-chlorophenoxy)-5-fluoropyrimidin-4-yloxy]phenyl}(5,6-dihydro-1,4,2-dioxazin-3-yl)methanone O-methyloxime, reference compound] gave an Observed efficacy (Septoria tritici; 0.25 ppm) of 68%.

CC(C)OC(=O)N[C@H](C(=O)N[C@H](C)c1nc2ccc(F)cc2s1)C(C)C [Fubenthiavalicarb (Benthivalicarb), isopropyl {(S)-1-[(1R)-1-(6-fluorobenzothiazol-2-yl)-ethylcarbamoyl]-2-methylpropyl}carbamate, reference compound] was tested, and the Observed efficacy (Septoria tritici; 4 ppm) was 0%.

With CC(C)NC(=O)N1CC(=O)N(c2cc(Cl)cc(Cl)c2)C1=O [Iprodion] the Observed efficacy (Pyricularia oryzae; concentration 0.24 ppm) was 4.

For CO/C=C(/C(=O)OC)c1ccccc1COc1cccc(C(F)(F)F)n1 [Picoxystrobin], the Observed efficacy (Pyricularia oryzae; concentration 0.063 ppm) was 60.

With COC(=O)N(OC)c1ccccc1COc1ccn(-c2ccc(Cl)cc2)n1 [Pyraclostrobin, methyl N-{2-[1-(4-chlorophenyl)-1H-pyrazol-3-yloxymethyl]phenyl}(N-methoxy)carbamate, reference compound] the Observed efficacy (Pyricularia oryzae; concentration 0.004 ppm) was 26 and the Observed efficacy (Phytophthora infestans; 0.016 ppm) was 13%.

For CON=C(C(=O)OC)c1ccccc1CON=C(C)c1cccc(C(F)(F)F)c1 [Trifloxystrobin], the Observed efficacy (Pyricularia oryzae; concentration 0.063 ppm) was 32.

In the case of Mancozeb, the Observed efficacy (Pyricularia oryzae; concentration 1 ppm) is reported as 36.
